# Measured values published in patent publication US7148249B2, “Indolinones substituted by heterocycles, the preparation thereof and their use as medicaments” (Boehringer Ingelheim Pharma GmbH & Co. KG, priority 2002, dated 2006).
# System: Human umbilical endothelial cells (HUVEC)
# Assay: Inhibition of VEGF165-stimulated HUVEC proliferation (3H-thymidine incorporation)
# Assay type: cell-based
# Conditions: HUVEC proliferation stimulated with 5 ng/ml VEGF165 and 10 μg/ml heparin; 76 h incubation + 16 h 3H-thymidine
# Experimental: Human umbilical endothelial cells (HUVEC) were cultivated in IMDM (Gibco BRL), supplemented with 10% foetal calf serum (FBS) (Sigma), 50 μM of β-mercaptoethanol (Fluka), standard antibiotics, 15 μg/ml of endothelial cell growth factor (ECGS, Collaborative Biomedical Products) and 100 μg/ml of heparin (Sigma) on gelatine-coated culture dishes (0.2% gelatine, Sigma) at 37° C., under 5% CO2 in a water-saturated atmosphere.
# In order to investigate the inhibitory activity of the compounds according to the invention the cells were “starved” for 16 hours, i.e. kept in culture medium without growth factors (ECGS+heparin). The cells were detached from the culture dishes using trypsin/EDTA and washed once in serum-containing medium. Then they were seeded out in amounts of 2.5×10^3 cells per well.
# The proliferation of the cells was stimulated with 5 ng/ml of VEGF165 (vascular endothelial growth factor; H. Weich, GBF Braunschweig) and 10 μg/ml of heparin. As a control, 6 wells in each dish were not stimulated.
# The compounds according to the invention were dissolved in 100% dimethylsulphoxide and added to the cultures in various dilutions as triple measurements, the maximum dimethylsulphoxide concentration being 0.3%.
# The cells were incubated for 76 hours at 37° C., then for a further 16 hours ^3H-thymidine (0.1 μCi/well, Amersham) was added in order to determine the DNA synthesis. Then the radioactively labelled cells were immobilised on filter mats and the radioactivity incorporated was measured in a β-counter. In order to determine the inhibitory activity of the compounds according to the invention the mean value of the non-stimulated cells was subtracted from the mean value of the factor-stimulated cells (in the presence or absence of the compounds according to the invention).
# The relative cell proliferation was calculated as a percentage of the control (HUVEC without inhibitor) and the concentration of active substance which inhibits the proliferation of the cells by 50% (IC50) was determined.
row,Compound,IC50
1,"3-(Z)-{1-(4-[N-acetyl-N-(2-dimethylaminoethyl)-amino]-phenylamino)-1-(3,4-(difluoromethylenedioxy)phenyl)-methylene}-6-chloro-2-indolinone [(al)]",83 nM
2,"CN(C)CCN(c1ccc(N/C(=C2\C(=O)Nc3cc(Cl)ccc32)c2ccc3c(c2)OCCO3)cc1Cl)S(C)(=O)=O [(ba), 6-chloro-3-(Z)-[1-(4-{N-(2-dimethylamino-ethyl)-N-methanesulphonyl-amino}-3-chloro-phenylamino)-1-(1,2-ethylenedioxyphen-4-yl)-methylene]-2-indolinone]",30 nM
3,"COc1cc(N/C(=C2\C(=O)Nc3cc(F)ccc32)c2ccc3c(c2)OCCO3)ccc1N(C)C(=O)CN(C)C [(bc), 6-fluoro-3-(Z)-{1-[4-(N-dimethylaminomethylcarbonyl-N-methyl-amino)-3-methoxy-phenylamino]-1-(1,2-ethylenedioxyphen-4-yl)-methylene}-2-indolinone]",5 nM
4,"Cn1cnc2cc(/C(Nc3ccc(N4CCCC4=O)cc3)=C3/C(=O)Nc4cc(F)ccc43)ccc21 [(as), 3-(Z)-{1-[4-(pyrrolid-2-on-1-yl)-phenylamino]-1-(1-methyl-benzimidazol-5-yl)-methylene}-6-fluoro-2-indolinone]",18 nM
5,"CN(C)CCN(c1ccc(N/C(=C2\C(=O)Nc3cc(F)ccc32)c2ccc3c(c2)OCCO3)cc1Cl)S(C)(=O)=O [(bd), 6-fluoro-3-(Z)-[1-(4-{N-(2-dimethylamino-ethyl)-N-methanesulphonyl-amino}-3-chloro-phenylamino)-1-(1,2-ethylenedioxyphen-4-yl)-methylene]-2-indolinone]",5 nM

# Same assay, conditions: Homo sapiens; HUVEC proliferation stimulated with 5 ng/ml VEGF165 and 10 μg/ml heparin; 76 h incubation + 16 h 3H-thymidine
row,Compound,IC50
1,"CN(C)CCN(c1ccc(N/C(=C2\C(=O)Nc3cc(F)ccc32)c2ccc3c(c2)OCCO3)cc1)S(C)(=O)=O [(ab), 3-(Z)-{1-(4-[N-methanesulphonyl-N-(2-dimethylaminoethyl)-amino]-phenylamino)-1-(3,4-ethylenedioxyphenyl)-methylene}-6-fluoro-2-indolinone]",1 nM
2,"CN(C)CCN(c1ccc(N/C(=C2\C(=O)Nc3cc(Cl)ccc32)c2ccc3c(c2)OCCO3)cc1)S(C)(=O)=O [(h), 3-(Z)-{1-(4-[N-methanesulphonyl-N-(2-dimethylaminoethyl)-amino]-phenylamino)-1-(3,4-ethylenedioxyphenyl)-methylene}-6-chloro-2-indolinone]",3 nM
3,"CN(C)Cc1ccc(N/C(=C2\C(=O)Nc3ccccc32)c2ccc3c(c2)ncn3C)cc1 [(aq), 3-(Z)-{1-[4-(dimethylaminomethyl)-phenylamino]-1-(1-methyl-benzimidazol-5-yl)-methylene}-2-indolinone]",24 nM
4,"CCN(CC)CCS(=O)(=O)c1ccc(N/C(=C2\C(=O)Nc3cc(Cl)ccc32)c2ccc3c(c2)OCO3)cc1 [(ap), 3-(Z)-{1-(4-[2-(diethylamino)ethyl-sulphonyl]-phenylamino)-1-(3,4-methylenedioxyphenyl)-methylene}-6-chloro-2-indolinone]",120 nM
5,"CN1CCN(C(=O)Cc2ccc(N/C(=C3\C(=O)Nc4cc(F)ccc43)c3ccc4c(c3)OCCO4)cc2)CC1 [(aw), 3-(Z)-{1-(4-[(1-methyl-piperazin-4-yl)-carbonylmethyl]-phenylamino)-1-(3,4-ethylenedioxyphenyl)-methylene}-6-fluoro-2-indolinone]",4 nM
6,"CCC(=O)N(CCCN(C)C)c1ccc(N/C(=C2\C(=O)Nc3cc(Cl)ccc32)c2ccc3c(c2)OCCO3)cc1 [(n), 3-(Z)-{1-(4-[N-propionyl-N-(3-dimethylaminopropyl)-amino]-phenylamino)-1-(3,4-ethylenedioxyphenyl)-methylene}-6-chloro-2-indolinone]",1 nM
7,"CN(C)CCC(=O)N(C)c1ccc(N/C(=C2\C(=O)Nc3cc(F)ccc32)c2ccc3c(c2)OCCO3)cc1 [(d), 3-(Z)-{1-[4-(N-methyl-N-{2-(dimethylamino)-ethyl-carbonyl}-amino)-phenylamino]-1-(3,4-ethylenedioxyphenyl)-methylene}-6-fluoro-2-indolinone]",3 nM
8,"CN1CCN(CC(=O)N(C)c2ccc(N/C(=C3\C(=O)Nc4cc(Cl)ccc43)c3ccc4c(c3)OCO4)cc2)CC1 [(az), 3-(Z)-{1-(4-[N-methyl-N-(4-methylpiperazin-1-yl-methylcarbonyl)-amino]-phenyl-amino)-1-(3,4-methylenedioxyphenyl)-methylene}-6-chloro-2-indolinone]",6 nM
9,"CC(=O)N(CCN(C)C)c1ccc(N/C(=C2\C(=O)Nc3cc(F)ccc32)c2ccc3c(c2)OCCO3)cc1 [(k), 3-(Z)-{1-(4-[N-acetyl-N-(2-dimethylaminoethyl)-amino]-phenylamino)-1-(3,4-ethylenedioxyphenyl)-methylene}-6-fluoro-2-indolinone]",0.7 nM
10,"CCN(C)Cc1ccc(N/C(=C2\C(=O)Nc3cc(Cl)ccc32)c2ccc3c(c2)OCO3)cc1 [(c), 3-(Z)-{1-[4-(N-ethyl-N-methyl-aminomethyl)-phenylamino]-1-(3,4-methylenedioxy-phenyl)-methylene}-6-chloro-2-indolinone]",2 nM
11,"CC(=O)N(CCN(C)C)c1ccc(N/C(=C2\C(=O)Nc3cc(Cl)ccc32)c2ccc3c(c2)OCCO3)cc1 [(p), 3-(Z)-{1-(4-[N-acetyl-N-(2-dimethylaminoethyl)-amino]-phenylamino)-1-(3,4-ethylenedioxyphenyl)-methylene}-6-chloro-2-indolinone]",2 nM
12,"CN(C)Cc1ccc(N/C(=C2\C(=O)Nc3ccccc32)c2ccc3c(c2)nnn3C)cc1 [(av), 3-(Z)-{1-[4-(dimethylaminomethyl)-phenylamino]-1-(1-methyl-benzotriazol-5-yl)-methylene}-2-indolinone]",94 nM
13,"CN(C)CCN(C)S(=O)(=O)c1ccc(N/C(=C2\C(=O)Nc3cc(F)ccc32)c2ccc3c(c2)ncn3C)cc1 [(au), 3-(Z)-{1-[4-(N-methyl-N-{2-dimethylamino-ethyl}-aminosulphonyl)-phenylamino]-1-(1-methyl-benzimidazol-5-yl)-methylene}-6-fluoro-2-indolinone]",13 nM
14,"CCC(=O)N(CCN(C)C)c1ccc(N/C(=C2\C(=O)Nc3cc(F)ccc32)c2ccc3c(c2)OCCO3)cc1 [(aa), 3-(Z)-{1-(4-[N-propionyl-N-(2-dimethylaminoethyl)-amino]-phenylamino)-1-(3,4-ethylenedioxyphenyl)-methylene}-6-fluoro-2-indolinone]",0.6 nM
15,"COC(=O)c1ccc2c(c1)NC(=O)/C2=C(\Nc1ccc(C(=O)N(C)CCCN(C)C)cc1)c1ccc2c(c1)OCCO2 [(ae), 3-(Z)-{1-(4-[N-methyl-N-(3-dimethylaminopropyl)aminocarbonyl]-phenylamino)-1-(3,4-ethylenedioxyphenyl)-methylene}-6-methoxycarbonyl-2-indolinone]",0.5 nM
16,"CCC(=O)N(CCCN(C)C)c1ccc(N/C(=C2\C(=O)Nc3cc(F)ccc32)c2ccc3c(c2)OCCO3)cc1 [(z), 3-(Z)-{1-(4-[N-propionyl-N-(3-dimethylaminopropyl)-amino]-phenylamino)-1-(3,4-ethylenedioxyphenyl)-methylene}-6-fluoro-2-indolinone]",0.5 nM
17,"COC(=O)c1ccc2c(c1)NC(=O)/C2=C(\Nc1ccc(N(CCN(C)C)S(C)(=O)=O)cc1)c1ccc2c(c1)OCCO2 [(r), 3-(Z)-{1-(4-[N-methanesulphonyl-N-(2-dimethylaminoethyl)-amino]-phenylamino)-1-(3,4-ethylenedioxyphenyl)-methylene}-6-methoxycarbonyl-2-indolinone]",0.2 nM
18,"CN(C)Cc1ccc(N/C(=C2\C(=O)Nc3cc(Cl)ccc32)c2ccc3c(c2)OCO3)cc1 [(a), 3-(Z)-{1-[4-(dimethylaminomethyl)-phenylamino]-1-(3,4-methylenedioxyphenyl)-methylene}-6-chloro-2-indolinone]",11 nM
19,"Cn1cnc2cc(/C(Nc3ccc(Cn4cncn4)cc3)=C3/C(=O)Nc4cc(F)ccc43)ccc21 [(e), 3-(Z)-{1-[4-(1,2,4-triazol-1-yl-methyl)-phenylamino]-1-(1-methyl-benzimidazol-5-yl)-methylene}-6-fluoro-2-indolinone]",16 nM
20,"CN1CCN(CC(=O)N(C)c2ccc(N/C(=C3\C(=O)Nc4cc(Cl)ccc43)c3ccc4nccnc4c3)cc2)CC1 [(b), 3-(Z)-{1-(4-[N-methyl-N-(4-methylpiperazin-1-yl-methylcarbonyl)-amino]-phenyl-amino)-1-(quinoxalin-6-yl)-methylene}-6-chloro-2-indolinone]",4 nM
21,"CN1CCC(N(C)C(=O)c2ccc(N/C(=C3\C(=O)Nc4cc(F)ccc43)c3ccc4c(c3)OCCO4)cc2)CC1 [(am), 3-(Z)-{1-(4-[N-methyl-N-(1-methyl-4-piperidinyl)-aminocarbonyl]-phenylamino)-1-(3,4-ethylenedioxyphenyl)-methylene}-6-fluoro-2-indolinone]",5 nM
